Patent publication US6706663B2, “Herbicidal 3-heterocyclic substituted benzisothiazole and benzisoxazole compounds” (Wyeth, priority 2000, dated 2004)

What was measured:
[1] = tested on: CHEAL (Chenopodium album); assay: Postemergence herbicidal evaluation; assay type: in vivo, L.; conditions: postemergence
Method in brief: (§1)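 Seedlings grown about two weeks in flats, sprayed, then kept under standard greenhouse care. Rated visually 4–5 weeks after treatment on a 0–9 scale (stand, vigour, malformation, size, chlorosis, overall appearance) relative to untreated control; repeat tests averaged.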

[2] = tested on: CASOB (Cassia obtusifolia); assay: Postemergence herbicidal evaluation; assay type: in vivo, L.; conditions: postemergence
Method in brief: as §1

[3] = tested on: AMBEL (Ambrosia artemisifolia); assay: Postemergence herbicidal evaluation; assay type: in vivo, L.; conditions: postemergence
Method in brief: as §1

[4] = tested on: CHEAL (Chenopodium album); assay: Preemergence herbicidal evaluation; assay type: in vivo, L.; conditions: rated 4-5 weeks after treatment
Method in brief: (§2)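 Seeds planted in potting soil cups and sprayed preemergence with aqueous acetone compound solution. Greenhouse-grown; rated 4–5 weeks after treatment on a 0-9 visual scale (stand, vigor, malformation, size, chlorosis, appearance) versus control.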

[5] = tested on: CASOB (Cassia obtusifolia); assay: Preemergence herbicidal evaluation; assay type: in vivo, L.; conditions: rated 4-5 weeks after treatment
Method in brief: as §2

[6] = tested on: AMBEL (Ambrosia artemisifolia); assay: Preemergence herbicidal evaluation; assay type: in vivo, L.; conditions: rated 4-5 weeks after treatment
Method in brief: as §2

[7] = tested on: TRZAWR (Wheat, Winter, cv Riband); assay: Preemergence herbicidal evaluation; assay type: in vivo, Triticum aestivum; conditions: rated 4-5 weeks after treatment
Method in brief: as §2

[8] = tested on: ABUTH (Abutilon theophrasti); assay: Postemergence herbicidal evaluation; assay type: in vivo, Medic.; conditions: postemergence
Method in brief: as §1

[9] = tested on: ECHCG (Echinochloa crus-galli); assay: Postemergence herbicidal evaluation; assay type: in vivo, (L.) Beau; conditions: postemergence
Method in brief: as §1

[10] = tested on: SAGPY (Sagittaria pygmaea); assay: Flooded paddy, preemergence weed control; assay type: in vivo, L.; conditions: rated 3-4 weeks after treatment, 0-9 rating scale
Method in brief: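 Preemergence, flooded: propagules planted at 0.5 cm depth in silt loam, water level maintained at 1.5 to 3 cm over soil, containers kept on greenhouse benches. Activity scored 0-9 by eye relative to a control plant.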

ORYSAT (Rice, Tebonnet) [11] = assay: Postemergence herbicidal evaluation; assay type: in vivo, Oryza sativa, (L.) Tebonnet; conditions: postemergence
Method in brief: as §1

ORYSAT (Rice, Tebonnet) [12] = assay: Preemergence herbicidal evaluation; assay type: in vivo, Oryza sativa, (L.) Tebonnet; conditions: rated 4-5 weeks after treatment
ORYSAT (Rice, Tebonnet) [13] = assay: Flooded paddy, post-transplant rice tolerance; assay type: in vivo, Oryza sativa, (L.) Tebonnet; conditions: flooded paddy, post-transplant rice, rated 3-4 weeks after treatment, 0-9 rating scale
Method in brief: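 Ten-day-old seedlings, 2/pot, silt loam; flood kept 1.5–3 cm over soil; herbicide applied post-transplant; greenhouse; score 0–9 visual vs control.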

[14] = tested on: ABUTH (Abutilon theophrasti); assay: Preemergence herbicidal evaluation; assay type: in vivo, Medic.; conditions: rated 4-5 weeks after treatment
[15] = tested on: GLXMAW (Soybean, Williams); assay: Postemergence herbicidal evaluation; assay type: in vivo, Glycine max, (L.) Merr. cv Williams; conditions: postemergence
Method in brief: as §1

[16] = tested on: IPOHE (Ipomoea hederacea); assay: Preemergence herbicidal evaluation; assay type: in vivo, (L.) Jacq.; conditions: rated 4-5 weeks after treatment
ZEAMX (Corn, Field) = assay: Postemergence herbicidal evaluation; assay type: in vivo, Zea mays, L.; conditions: postemergence
Method in brief: as §1

GALAP (Galium aparine) [17] = assay: Preemergence herbicidal evaluation; assay type: in vivo; conditions: rated 4-5 weeks after treatment
Method in brief: as §2

GALAP (Galium aparine) [18] = assay: Postemergence herbicidal evaluation; assay type: in vivo; conditions: postemergence
Method in brief: as §1

Compound: C=CC1COC(c2nsc3ccc(-n4c(=O)cc(C(F)(F)F)n(C)c4=O)cc23)O1 (stereo not drawn) [Compound 76, 1-methyl-6-(trifluoromethyl)-3-[3-(4-vinyl-1,3-dioxolan-2-yl)-1,2-benzisothiazol-5-yl]uracil]
- CHEAL herbicidal rating ([1]; rate 0.0320 kg/ha): 9.0
- CHEAL herbicidal rating ([1]; rate 0.0620 kg/ha): 9.0
- CASOB herbicidal rating ([2]; rate 0.0320 kg/ha): 4.0
- CASOB herbicidal rating ([2]; rate 0.0620 kg/ha): 5.0
- AMBEL herbicidal rating ([3]; rate 0.0320 kg/ha): 9.0
- AMBEL herbicidal rating ([3]; rate 0.0620 kg/ha): 9.0
- Preemergence herbicidal rating CHEAL ([4]; Rate 0.0620 kg/ha): 9.0
- Preemergence herbicidal rating CHEAL ([4]; Rate 0.1250 kg/ha): 9.0
- Preemergence herbicidal rating CHEAL ([4]; Rate 0.2500 kg/ha): 9.0
- Preemergence herbicidal rating CASOB ([5]; Rate 0.0620 kg/ha): 5.0
- Preemergence herbicidal rating CASOB ([5]; Rate 0.1250 kg/ha): 8.5
- Preemergence herbicidal rating CASOB ([5]; Rate 0.2500 kg/ha): 9.0
- Preemergence herbicidal rating AMBEL ([6]; Rate 0.0620 kg/ha): 9.0
- Preemergence herbicidal rating AMBEL ([6]; Rate 0.1250 kg/ha): 9.0
- Preemergence herbicidal rating AMBEL ([6]; Rate 0.2500 kg/ha): 9.0
- Preemergence herbicidal rating TRZAWR ([7]; Rate 0.0620 kg/ha): 7.0
- Preemergence herbicidal rating TRZAWR ([7]; Rate 0.1250 kg/ha): 8.0
- Preemergence herbicidal rating TRZAWR ([7]; Rate 0.2500 kg/ha): 8.0
- ABUTH herbicidal rating ([8]; rate 0.0320 kg/ha): 9.0
- ABUTH herbicidal rating ([8]; rate 0.0620 kg/ha): 9.0
- ECHCG herbicidal rating ([9]; rate 0.0320 kg/ha): 0.0
- ECHCG herbicidal rating ([9]; rate 0.0620 kg/ha): 3.0
- herbicidal rating, SAGPY ([10]; rate 0.0080 kg/ha): 0.0
- herbicidal rating, SAGPY ([10]; rate 0.0320 kg/ha): 0.0
- herbicidal rating, SAGPY ([10]; rate 0.1250 kg/ha): 9.0
- ORYSAT herbicidal rating (ORYSAT (Rice, Tebonnet) [11]; rate 0.0320 kg/ha): 3.5
- ORYSAT herbicidal rating (ORYSAT (Rice, Tebonnet) [11]; rate 0.0620 kg/ha): 4.0
- Preemergence herbicidal rating ORYSAT (ORYSAT (Rice, Tebonnet) [12]; Rate 0.0620 kg/ha): 7.0
- Preemergence herbicidal rating ORYSAT (ORYSAT (Rice, Tebonnet) [12]; Rate 0.1250 kg/ha): 8.5
- Preemergence herbicidal rating ORYSAT (ORYSAT (Rice, Tebonnet) [12]; Rate 0.2500 kg/ha): 9.0
- herbicidal rating, ORYSAT (rice tolerance) (ORYSAT (Rice, Tebonnet) [13]; rate 0.0080 kg/ha): 2.0
- herbicidal rating, ORYSAT (rice tolerance) (ORYSAT (Rice, Tebonnet) [13]; rate 0.0320 kg/ha): 3.0
- herbicidal rating, ORYSAT (rice tolerance) (ORYSAT (Rice, Tebonnet) [13]; rate 0.1250 kg/ha): 9.0
- Preemergence herbicidal rating ABUTH ([14]; Rate 0.0620 kg/ha): 9.0
- Preemergence herbicidal rating ABUTH ([14]; Rate 0.1250 kg/ha): 9.0
- Preemergence herbicidal rating ABUTH ([14]; Rate 0.2500 kg/ha): 9.0
- GLXMAW herbicidal rating ([15]; rate 0.0320 kg/ha): 7.0
- GLXMAW herbicidal rating ([15]; rate 0.0620 kg/ha): 8.0
- Preemergence herbicidal rating IPOHE ([16]; Rate 0.0620 kg/ha): 7.5
- Preemergence herbicidal rating IPOHE ([16]; Rate 0.1250 kg/ha): 9.0
- Preemergence herbicidal rating IPOHE ([16]; Rate 0.2500 kg/ha): 9.0
- ZEAMX herbicidal rating (ZEAMX (Corn, Field); rate 0.0320 kg/ha): 3.5
- ZEAMX herbicidal rating (ZEAMX (Corn, Field); rate 0.0620 kg/ha): 4.5
- Preemergence herbicidal rating GALAP (GALAP (Galium aparine) [17]; Rate 0.0620 kg/ha): 7.0
- Preemergence herbicidal rating GALAP (GALAP (Galium aparine) [17]; Rate 0.1250 kg/ha): 9.0
- Preemergence herbicidal rating GALAP (GALAP (Galium aparine) [17]; Rate 0.2500 kg/ha): 9.0
- GALAP herbicidal rating (GALAP (Galium aparine) [18]; rate 0.0320 kg/ha): 5.0
- GALAP herbicidal rating (GALAP (Galium aparine) [18]; rate 0.0620 kg/ha): 7.0
